As usually defined, the AUC is concentration integrated over time. The mortality is the percentage killed. A low value points to more survivors.

The values below come from US20260191810A1, “CAROTENOID COMPOSITIONS AND USES THEREOF” (L.E.A.F. HOLDINGS GROUP LLC, priority 2019, published 2026).

Series [1] is described as follows: Liposomal CTC and MTC PK, single slow intravenous bolus, plasma HPLC. The following applies: Balb/c mice. The series is classed as in vivo.
Procedure: 5 μL of each plasma sample was mixed with 395 μL methanol containing 1% formic acid. Sample mixtures were well mixed by vortexing. […] Samples were vortexed and then centrifuged at 10000 RPM for 10 min at room temperature. 200 μL of supernatant was removed from each sample without disturbing pellet and analyzed by HPLC. If the amount of plasma permitted, this analysis was duplicated.
The concentration of STC in the plasma samples was quantified by standard curve constructed by analyzing plasma samples containing known amount of STC. PK profiles were analyzed.
In the next series the test system is mouse CLP sepsis model. The series is described as follows: Survival Study 1 (TP-936), CLP sepsis efficacy. The following applies: CLP mice treated with saline and imipenem (imipenem-treated control). The series is classed as in vivo, C57BL/6 mice. From the text:
Male and/or female C57BL/6 mice ordered from Envigo Laboratories or the Jackson Lab (Bar Harbor, Maine) were acclimated to housing conditions and handled in accordance with Animal Use Protocol (AUP) number TP-05. The animals were acclimated for approximately 1 week prior to study start. Only animals deemed healthy were included in this study. Animals were fed irradiated Teklad Global Rodent Diet 2918 and water ad libitum. Mice were group housed 5/cage in static cages with irradiated Teklad ⅛″ corn cob bedding 7902 inside bioBubble® Clean Rooms that provide H.E.P. A filtered air into the bubble environment at 100 complete air changes per hour. The environment was controlled to a temperature range of 74°±5° F. and a humidity range of 30-70%. Treatment groups were identified by cage card. Individual mice were identified by indelible marker on the base of the tail. All procedures carried out in this experiment were conducted in compliance with the laws, regulations, and guidelines of the National Institutes of Health and with the approval of the TransPharm Animal Care and Use Committee.
On Day −1, male and/or female mice were anesthetized through use of isoflurane and brought to a surgical plane. […]
Animals were monitored continually post-surgery, at least once every 2-3 minutes for approximately 30 minutes, until the animals had recovered and were able to move about on their own. […]

As to `CC(/C=C/C=C(\C)C(=O)O)=C\C=C\C=C(C)\C=C\C=C(/C)C(=O)O` [STC free drug, sodium trans-crocetinate], in series [1], the AUC amounted to 260 µg·h/mL and the T1/2 turned out to be 28.2 min.

For `C[C@@H](O)[C@H]1C(=O)N2C(C(=O)O)=C(SCCN=CN)C[C@H]12` [imipenem], in the series with mouse CLP sepsis model, the mortality is reported as 50%.
